# Test results: the C3SDB collision cross section collection
# Where a name gives a salt, the structure may show the parent alone.
# Details: instrument: DT, single field, calibrated with Agilent tune mix (Agilent)
SMILES,collision cross section (N2) ([M-H]-) [Å²],collision cross section (N2) ([M+H]+) [Å²],further results
O=C(O)C(O)Cc1ccc(O)cc1 (configuration not stated) [Hydroxyphenyllactic acid],139.4,,
O=C(O)Cc1cnc[nH]1 [Imidazoleacetic acid],,123.1,
O=C(O)c1c[nH]c2ccccc12 [Indole-3-carboxylic acid],124.5,132.4,
c1ccc2[nH]ccc2c1 [Indole],117.08,121,
O=C(O)Cc1c[nH]c2ccccc12 [Indoleacetic acid],,136.2,
O=S(=O)(O)Oc1c[nH]c2ccccc12 [Indoxyl sulfate],140.6,,
CC(C)C(=O)SCCNC(=O)CCNC(=O)[C@H](O)C(C)(C)COP(=O)(O)OP(=O)(O)OC[C@H]1O[C@@H](n2cnc3c(N)ncnc32)[C@H](O)[C@@H]1OP(=O)(O)O [Isobutyryl-CoA],254.31,252,
CC(C)C(=O)NCC(=O)O [Isobutyrylglycine],132.07,,
CC(C)CCC(=O)O [Isocaproic acid],127.48,,
CC(C)CC(=O)NCC(=O)O [Isovalerylglycine],138.14,155.1,
OC[C@H](O)[C@@H](O)[C@H](O)[C@@H](O)CO [L-Iditol],129.61,,collision cross section (N2) ([M+Na]+): 143 Å²
CC(C)C[C@H](N)C(=O)N1CCC[C@H]1C(=O)O [L-leucyl-L-proline],,,collision cross section (N2) ([M+H-H2O]+): 149.5 Å²
CC(C)=CCC[C@@H](C)[C@H]1CC[C@@]2(C)C3=C(CC[C@]12C)[C@@]1(C)CC[C@H](O)C(C)(C)[C@@H]1CC3 [Lanosterol],,,collision cross section (N2) ([M+H-H2O]+): 207.3 Å²
C[C@H](CCC(=O)O)[C@H]1CC[C@H]2[C@@H]3CC[C@@H]4C[C@H](O)CC[C@]4(C)[C@H]3CC[C@]12C [Lithocholic acid],199.95,,collision cross section (N2) ([M+H-H2O]+): 193.4 Å²
CCCCCCCCCCCCCC(=O)O [Myristic acid],159.21,,
CC(=O)N[C@@H](CCCN)C(=O)O [N2-Acetyl-L-ornithine],,136.9,
CNc1ncnc2c1ncn2[C@@H]1O[C@H](CO)[C@@H](O)[C@H]1O [N6-methyladenosine],159.67,,collision cross section (N2) ([M+Na]+): 170.4 Å²
"CC(=O)N[C@H]1[C@H](O[C@H]2[C@H](O)[C@@H](NC(C)=O)C(O)O[C@@H]2CO)O[C@H](CO)[C@@H](O)[C@@H]1O (some centres not stated) [N,N'-Diacetylchitobiose]",,192.9,
NC(=NCCCC(N)C(=O)O)NO (configuration not stated) [N-(omega)-Hydroxyarginine],138.2,139,
CC(=O)N[C@@H](CC(=O)O)C(=O)O [N-Acetyl-L-aspartic acid],129.21,,collision cross section (N2) ([M+Na]+): 139 Å²
CC(=O)N[C@@H](CC(=O)O)C(=O)N[C@@H](CCC(=O)O)C(=O)O [N-Acetylaspartylglutamate (NAAG)],,,collision cross section (N2) ([M+Na]+): 166.3 Å²
CC(=O)N[C@@H](CC(=O)O)C(=O)N[C@@H](CCC(=O)O)C(=O)O [N-Acetylaspartylglutamate],,,collision cross section (N2) ([M-H2O-H]-): 156.77 Å²
NC(=O)c1ccc[n+]([C@@H]2O[C@H](COP(=O)([O-])O)[C@@H](O)[C@H]2O)c1 [Nicotinamide ribotide],,165.2,

# Second part, led by results:
collision cross section (N2) ([M-H]-) [Å²],collision cross section (N2) ([M+H]+) [Å²],SMILES,further results
139.72,,O=C(O)CNC(=O)c1ccccc1 [Hippuric acid],
134.15,,COc1cc(CC(=O)O)ccc1O [Homovanillic acid],
,189.1,C[C@]12CCC(=O)C=C1CC[C@@H]1[C@@H]2[C@@H](O)C[C@@]2(C)[C@H]1CC[C@]2(O)C(=O)CO [Hydrocortisone (Cortisol)],
146.51,143.8,O=C(O)C(O)Cc1c[nH]c2ccccc12 (configuration not stated) [Indolelactic acid],
176.13,185.6,O=c1nc[nH]c2c1ncn2[C@@H]1O[C@H](COP(=O)(O)OP(=O)(O)O)[C@@H](O)[C@H]1O [Inosine diphosphate],
187.3,,O=c1nc[nH]c2c1ncn2[C@@H]1O[C@H](COP(=O)(O)OP(=O)(O)OP(=O)(O)O)[C@@H](O)[C@H]1O [Inosine triphosphate],
,137,O=C(O)c1cc(=O)c2ccccc2[nH]1 [Kynurenic acid],collision cross section (N2) ([M+Na-2H]-): 149.51 Å²
,138.6,O=C1O[C@H]([C@@H](O)CO)C(O)=C1O [L-Ascorbic acid],
,133.1,C[N+](C)(C)C[C@H](O)CC(=O)[O-] [L-Carnitine],
120.55,,N[C@@H](CS(=O)(=O)O)C(=O)O [L-Cysteic acid],
204.49,214,CCCCCCCCCCCCCCCC(=O)O[C@H](CC(=O)[O-])C[N+](C)(C)C [L-Palmitoylcarnitine],
193.29,,O=P(O)(O)OC1C(OP(=O)(O)O)C(OP(=O)(O)O)C(OP(=O)(O)O)C(OP(=O)(O)O)C1OP(=O)(O)O (configuration not stated) [Myo-inositol hexakisphosphate],
146.34,142.7,CC(=O)NCCCCNCCCN [N8-Acetylspermidine],
144.2,,CC(=O)N[C@@H](Cc1ccccc1)C(=O)O [N-Acetyl-L-phenylalanine],collision cross section (N2) ([M+Na]+): 149.8 Å²
136.82,,CC(=O)N[C@@H](CCC(N)=O)C(=O)O [N-Acetylglutamine],collision cross section (N2) ([M+Na]+): 144.4 Å²
134.09,,CSCC[C@H](NC=O)C(=O)O [N-Formylmethionine],
,230.9,NC(=O)c1ccc[n+]([C@@H]2O[C@H](COP(=O)(O)OP(=O)(O)OC[C@H]3O[C@@H](n4cnc5c(N)ncnc54)[C@H](OP(=O)(O)O)[C@@H]3O)[C@@H](O)[C@H]2O)c1 [Nicotinamide adenine dinucleotide phosphate (NADP)],
228.27,,NC(=O)c1ccc[n+]([C@@H]2O[C@H](COP(=O)(O)OP(=O)(O)OC[C@H]3O[C@@H](n4cnc5c(N)ncnc54)[C@H](OP(=O)(O)O)[C@@H]3O)[C@@H](O)[C@H]2O)c1 [Nicotinamide adenine dinucleotide phosphate],
